# From patent US3985738A, “7-(D-. alpha.-Hydroxy-2-arylacetamido)-3-(tetrazolo-[4,5-b]pyridazin-6-ylthiomet hyl)-3-cephem-4-carboxylic acids” (Bristol-Myers Company, priority 1974, dated 1976)
# Key:
# Assay in all cases: In vitro antibacterial activity, tube dilution method (Nutrient Broth)
# Assay type in all cases: cell-based
# E. coli ATCC 8739 = details: Escherichia coli, ATCC8739
# Text: (§1) In vitro Antibacterial Activity of BB-S266 by Tube Dilution Method (Nutrient Broth).
# Ser. marcescens A20019 = details: Serratia marcescens
# Text: as §1
# S. aureus Smith = details: Staphylococcus aureus
# Text: as §1
# Kl. pneumoniae A9977 = details: Klebsiella pneumoniae
# Text: as §1
# Ps. aeruginosa A9843 = details: Pseudomonas aeruginosa
# Text: as §1
# Mycobacterium 607 = tested on: Mycobacterium 607
# Text: as §1
# Dip. pneumoniae = details: Streptococcus pneumoniae
# Text: as §1
# Pr. morganii A15153 = details: Morganella morganii
# Text: as §1
# E. coli Juhl A15119 = details: Escherichia coli, JUHLA15119
# Text: as §1
# Kl. pneumoniae A15130 = details: Klebsiella pneumoniae
# Text: as §1
# E. coli NIHJ = details: Escherichia coli
# Text: as §1
# St. pyogenes A9604 = details: Streptococcus pyogenes
# Text: as §1
# Sal. enteritidis A9531 = details: Salmonella enterica
# Text: as §1
# Pr. mirabilis A9900 = details: Proteus mirabilis
# Text: as §1
# S. aureus Russel = details: Staphylococcus aureus
# Text: as §1
# S. aureus BX-1633 = details: Staphylococcus aureus, BX1633
# Text: as §1
smiles,measurement,setting,value
"O=C(O)C1=C(CSc2ccc3nnnn3n2)CS[C@@H]2C(NC(=O)[C@H](O)c3ccccc3)C(=O)N12 (stereo partly drawn) [BB-S266, 7-(D-α-HYDROXY-α-PHENYLACETAMIDO)-3-(TETRAZOLO[4,5-B]PYRIDAZIN-6-YLTHIOMETHYL)-3-CEPHEM-4-CARBOXYLIC ACID]",MIC,E. coli ATCC 8739,1.6 µg/mL
same,MIC,Ser. marcescens A20019,100 µg/mL
same,MIC,S. aureus Smith; S. aureus Smith,0.1 µg/mL
same,MIC,S. aureus Smith; S. aureus Smith + 50% serum,0.2 µg/mL
same,MIC,Kl. pneumoniae A9977,3.1 µg/mL
same,MIC,Ps. aeruginosa A9843,< 100 µg/mL
same,MIC,Mycobacterium 607,< 100 µg/mL
same,MIC,Dip. pneumoniae,0.01 µg/mL
same,MIC,Pr. morganii A15153,50 µg/mL
same,MIC,E. coli Juhl A15119,3.1 µg/mL
same,MIC,Kl. pneumoniae A15130,3.1 µg/mL
same,MIC,E. coli NIHJ,0.08 µg/mL
same,MIC,St. pyogenes A9604,0.01 µg/mL
same,MIC,Sal. enteritidis A9531,0.4 µg/mL
same,MIC,Pr. mirabilis A9900,6.3 µg/mL
same,MIC,S. aureus Russel,0.4 µg/mL
same,MIC,S. aureus BX-1633,0.8 µg/mL
